In US20250051419A1, “POLYPEPTIDE MODULATORS” (Georgiamune Inc., priority 2021, published 2025):

Legend:
PD-1 = target: T1, PD-1 (Mus musculus, UniProt Q02242); experiment: Immunoprecipitation of PD-1 and Western blot of PD-1 bound ITK and SHP2; assay type: cell-based; conditions: pre-activated primary mouse CD4 T cells, PD-1 immune-precipitated 5 minutes after treatment, Western blot, compared to control Ab
T1 construct: endogenous in cells
T1 sequence (Q02242 25-288): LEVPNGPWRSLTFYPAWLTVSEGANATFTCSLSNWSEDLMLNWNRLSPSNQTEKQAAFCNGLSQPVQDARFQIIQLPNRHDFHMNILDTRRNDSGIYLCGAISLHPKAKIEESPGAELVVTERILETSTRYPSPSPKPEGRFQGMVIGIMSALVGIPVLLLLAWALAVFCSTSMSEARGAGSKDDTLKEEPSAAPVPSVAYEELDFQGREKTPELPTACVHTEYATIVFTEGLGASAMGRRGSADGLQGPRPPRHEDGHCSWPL
Experimental: FIGS. 4 and 5 show the modulation of ITK and its effects on immune response. […] However, when there is more ITK than SHP2, a stimulatory signal was generated. When there is the same amount of ITK and SHP2, the immune response was either inhibitory or activating. […] Thus, an activator of ITK would have the effect of enhancing an immune response and an inhibitor of ITK can suppress the immune response. […] PD-1 was immune-precipitated with beads 5 minutes after pre-activated primary mouse CD4 T cells were treated with PD-L1-IgG, PD-L2-IgG or anti-PD-1 mouse blocking antibody (clone RMP1-14).

human CD4 T cells = experiment: Flow cytometry of Tcm and Tte after PD-L2-IgG treatment of stimulated T cells; assay type: cell-based; conditions: 25 μg/mL, 48 hours after treatment, vs untreated, p<0.05
Experimental: After 72 hours, the cells were treated with PD-L2-IgG at concentration of 25 μg/mL. Control wells were left untreated. Forty-eight hours after treatment, the cells were collected, washed and stained with the fluorophore labeled antibodies, and analyzed by flow cytometry. Tom were defined as CD45RO^high/CD62L^high/CD45RA^low. Exhausted T cells or terminal effector T cells (“Tte”) were defined as CD45RO^low/CD62L^low/CD45RA^high.

ITK/SHP2 ratio (PD-1 bound ITK and SHP2) (PD-1): increased
Substance: PD-L2-IgG: PD-L2 fused to IgG, used to treat T cells; sequence not stated at the place
Tcm (CD45RO high/CD62L high/CD45RA low) (human CD4 T cells): significant increase
Tte (exhausted or terminal effector T cells, CD45RO low/CD62L low/CD45RA high) (human CD4 T cells): significant decrease
